Laboratory results taken from ChEMBL document CHEMBL1142082, “Oral versus intravenous flucytosine in patients with human immunodeficiency virus-associated cryptococcal meningitis” (Antimicrob Agents Chemother, 2007).

Columns and labels:
Homo sapiens [1] = assay: Effect on hemoglobin level in intravenously dosed HIV associated cryptococcal meningitis patient after 2 weeks relative to baseline; format: functional
Homo sapiens [2] = assay: Effect on creatinine clearance in intravenously dosed HIV associated cryptococcal meningitis patient after 2 weeks relative to baseline; format: functional
[3] = AUC in intravenously dosed HIV associated cryptococcal meningitis patient at 24 hrs; format: ADME, organism-based; parameters: time < 24 hr, route intravenous; conditions: human, plasma, iv
Homo sapiens [4] = assay: Effect on neutrophils level in intravenously dosed HIV associated cryptococcal meningitis patient after 2 weeks relative to baseline; format: functional
Homo sapiens [5] = assay: Effect on neutrophils level in orally dosed HIV associated cryptococcal meningitis patient after 2 weeks relative to baseline; format: functional
Homo sapiens [6] = assay: Effect on platelet count in intravenously dosed HIV associated cryptococcal meningitis patient relative to control; format: functional
[7] = Volume of distribution in intravenously dosed HIV associated cryptococcal meningitis patient normalized to weight; format: ADME, organism-based; conditions: human, in vivo, iv; read-out: Vdss
Homo sapiens [8] = assay: Effect on platelet count in intravenously dosed HIV associated cryptococcal meningitis patient after 2 weeks relative to baseline; format: functional
Homo sapiens [9] = assay: Volume of distribution in orally dosed HIV associated cryptococcal meningitis patient normalized to weight; format: ADME, organism-based; conditions: in vivo, po
Homo sapiens [10] = assay: Effect on alanine transferase level in orally dosed HIV associated cryptococcal meningitis patient after 2 weeks relative to baseline; format: functional
[11] = Clearance in intravenously dosed HIV associated cryptococcal meningitis patient; format: ADME, organism-based; conditions: human, in vivo, iv
[12] = Oral clearance in HIV associated cryptococcal meningitis patient; format: ADME, organism-based; conditions: human, in vivo
Homo sapiens [13] = assay: Effect on alanine transferase level in orally dosed HIV associated cryptococcal meningitis patient relative to control; format: functional
Homo sapiens [14] = assay: Effect on aspartate aminotransferase level in intravenously dosed HIV associated cryptococcal meningitis patient relative to control; format: functional
[15] = Fungicidal activity in HIV associated Cryptococcal meningitis patient; format: functional, Cryptococcus
Homo sapiens [16] = assay: Effect on creatinine clearance in intravenously dosed HIV associated cryptococcal meningitis patient relative to control; format: functional
Homo sapiens [17] = assay: Effect on platelet count in orally dosed HIV associated cryptococcal meningitis patient relative to control; format: functional
Homo sapiens [18] = assay: Effect on aspartate aminotransferase level in intravenously dosed HIV associated cryptococcal meningitis patient after 2 weeks relative to baseline; format: functional
Homo sapiens [19] = assay: Effect on neutrophils level in intravenously dosed HIV associated cryptococcal meningitis patient relative to control; format: functional
[20] = Fungicidal activity in intravenously dosed HIV associated cryptococcal meningitis patient; format: functional, Cryptococcus
Homo sapiens [21] = assay: Effect on creatinine clearance in orally dosed HIV associated cryptococcal meningitis patient after 2 weeks relative to baseline; format: functional
Homo sapiens [22] = assay: Effect on neutrophils level in orally dosed HIV associated cryptococcal meningitis patient relative to control; format: functional
Homo sapiens [23] = assay: Effect on hemoglobin level in orally dosed HIV associated cryptococcal meningitis patient relative to control; format: functional
Homo sapiens [24] = assay: Effect on alanine transferase level in intravenously dosed HIV associated cryptococcal meningitis patient relative to control; format: functional
[25] = AUC in orally dosed HIV associated cryptococcal meningitis patient at 24 hrs; format: ADME, organism-based; parameters: time < 24 hr, route oral; conditions: human, plasma, po
Homo sapiens [26] = assay: Effect on creatinine clearance in orally dosed HIV associated cryptococcal meningitis patient relative to control; format: functional
Homo sapiens [27] = assay: Effect on hemoglobin level in intravenously dosed HIV associated cryptococcal meningitis patient relative to control; format: functional
Homo sapiens [28] = assay: Effect on platelet count in orally dosed HIV associated cryptococcal meningitis patient after 2 weeks relative to baseline; format: functional
Homo sapiens [29] = assay: Effect on alanine transferase level in intravenously dosed HIV associated cryptococcal meningitis patient after 2 weeks relative to baseline; format: functional
Homo sapiens [30] = assay: Effect on hemoglobin level in orally dosed HIV associated cryptococcal meningitis patient after 2 weeks relative to baseline; format: functional
Homo sapiens [31] = assay: Effect on aspartate aminotransferase level in orally dosed HIV associated cryptococcal meningitis patient after 2 weeks relative to baseline; format: functional
Homo sapiens [32] = assay: Effect on aspartate aminotransferase level in orally dosed HIV associated cryptococcal meningitis patient relative to control; format: functional
[33] = Fungicidal activity in orally dosed HIV associated cryptococcal meningitis patient; format: functional, Cryptococcus

Compound `Nc1nc(=O)[nH]cc1F` [FLUCYTOSINE] has an Activity (Homo sapiens [1]) of 78%, an Activity (Homo sapiens [2]) of 76% and an AUC at 24 h [3] of 1290 µg·h/mL. The Activity (Homo sapiens [4]) was 59%, the Activity (Homo sapiens [5]) was 73% and the Activity (Homo sapiens [6]) was 249 10^9/L. For the same compound, the Vd [7] was 0.94 L/kg, the Activity (Homo sapiens [8]) was 83% and the Vdss (Homo sapiens [9]) was 1.41 L/kg. For the same compound, the Activity (Homo sapiens [10]) was 94%, the clearance [11] was 63.3 mL/min and the CL/F [12] was 112 mL/min. It also gave an Activity (Homo sapiens [13]) of 43 U/L, an Activity (Homo sapiens [14]) of 33 U/L and a log10cfu/day [15] of -0.46. The Creatinine_CL (Homo sapiens [16]) was 74 mL/min, the Activity (Homo sapiens [17]) was 263 10^9/L and the Activity (Homo sapiens [18]) was 100%. The Activity (Homo sapiens [19]) was 5.6 10^9/L, the log10cfu/day [20] was -0.43 and the Activity (Homo sapiens [21]) was 83%. The Activity (Homo sapiens [22]) was 4.5 10^9/L, the Activity (Homo sapiens [23]) was 10.6 g/dL and the Activity (Homo sapiens [24]) was 38 U/L. The AUC at 24 h [25] was 576 µg·h/mL, the Creatinine_CL (Homo sapiens [26]) was 75 mL/min and the Activity (Homo sapiens [27]) was 11.2 g/dL. It also gave an Activity (Homo sapiens [28]) of 112%, an Activity (Homo sapiens [29]) of 86% and an Activity (Homo sapiens [30]) of 70%. For the same compound, the Activity (Homo sapiens [31]) was 69%, the Activity (Homo sapiens [32]) was 40 U/L and the log10cfu/day [33] was -0.48.
